# Assay results taken from PMC4207450, “Aurones: A Promising Heterocyclic Scaffold for the Development of Potent Antileishmanial Agents” (International Journal of Medicinal Chemistry, 2012).
# Read-outs that look alike come from different tables or passages of the source.
# Columns and labels:
# [1] = system: THP1-differentiated macrophages; assay: Toxicity of aurones on THP1-differentiated macrophages (MTT assay); type: cell-based, human; settings: for IC50: Homo sapiens, Macrophage, 72 h incubation, MTT assay, cytotoxicity; for toxicity to mammalian (THP1) cells, in words: THP1-differentiated macrophages
# Description: The human leukaemia monocyte THP1 cell line was cultured as a monolayer at 37°C in a humidified atmosphere containing 5% CO2. Cells were grown in RPMI 1640 medium, supplemented with 10% heat-inactivated FBS, 2 mM L-glutamine, 100 U/mL penicillin, and 100 μg/mL streptomycin, and were maintained in culture, by subpassage every 3 days.
# For macrophage differentiation, human leukaemia monocyte cell line (THP-1 cells) cells were incubated in the presence of 20 ng/ml phorbol 12-myristate 13-acetate (PMA, Sigma-Aldrich) for 18 h at 37°C, 5% CO2, and left another 24 h with fresh medium containing no PMA to induce maturation. Serial dilutions of each aurone, ranging from 100 to 1.56 μM in culture media, were added to the wells, in quadruplicate, and incubated for 72 h at 37°C, 5% CO2. Cell viability was assessed by the MTT assay, as described before.
# The IC50 value, that is, the concentration of the aurone necessary to decrease cell viability to 50% of the untreated control, was determined by linear regression analysis.
# [2] = system: L. infantum intracellular amastigotes; assay: Growth inhibition of luciferase-expressing L. infantum intracellular amastigotes in THP1-differentiated macrophages; type: cell-based, Leishmania infantum; settings: for IC50: Leishmania infantum, Macrophage, 72 h incubation, luciferase activity, infected THP1-differentiated macrophages
# Description: A cloned line of L. infantum (MOM/MA671 TMAP263) promastigotes, stably expressing the luciferase gene (LUC), was grown in RPMI 1640 medium (Bio Whitaker, Belgium) supplemented with 10% heat-inactivated fetal bovine serum (FBS) (Bio Whitaker, Belgium), 2 mML-glutamine (Bio Whitaker, Belgium), 20 mM Hepes (Bio Whitaker, Belgium), 100 U/mL penicillin, and 100 μg/mL streptomycin (Bio Whitaker, Belgium). Selection of LUC positive parasites was done by adding geneticin-sulphate (Sigma-Aldrich, USA) to the culture media at a final concentration of 5 μg/mL. Parasites were maintained in culture, at 26°C by subpassage ([…]) at every 5 days.
# L. infantum axenic amastigotes, stably expressing the LUC gene were derived from promastigotes by culturing them in MAA (Medium for Axenic Amastigotes) culture medium. MAA consisted of a modified medium 199 with Hanks balanced salt solution (Gibco-Invitrogen, Spain) supplemented with 0.5% soya broth trypto-casein (Bio-Rad, UK), 15 mM D-glucose (Panreac, Spain), 4 mM NaHCO3 (Sigma-Aldrich, USA). The pH was adjusted to 5.8, and the media was 0.2 μm sterilized by filtration and further supplemented with 0.023 mM bovine hemin (Fluka, USA), 5 mM L-glutamine, and 25% of heat inactivated FBS. Amastigotes were maintained in culture, at 37°C in an atmosphere containing 5% CO2 by subpassage (10^5 parasites/mL), at every 5 days.
# THP1-differentiated macrophages were infected for a period of 4 h with stationary phase LUC expressing, L. infantum axenic amastigotes, at a 5 : 1 parasite to cell ratio. After the infection period, cells were washed with culture media to remove noninternalized parasites. Serial dilutions of the aurones, ranging from 50 to 0.78 μM in culture media, were added to the wells, in quadruplicate, and incubated for 72 h at 37°C, 5% CO2. After the incubation period, the luciferase activity of intracellular amastigotes was determined as described before. The percentage of growth inhibition was calculated as described above.
# [3] = ratio of IC50 on THP1-differentiated macrophages to IC50 on intracellular parasite
structure (smiles),measurement,setting,value
COc1ccc(/C=C2\Oc3ccccc3C2=O)cc1 [Compound 4a],IC50,[1],16.5 ± 3.1 µM
"C[C@@H]1[C@H](O)[C@@H](C)/C=C/C=C/C=C/C=C/C=C/C=C/C=C/[C@H](O[C@@H]2O[C@H](C)[C@@H](O)[C@H](N)[C@@H]2O)C[C@@H]2O[C@](O)(C[C@@H](O)C[C@@H](O)[C@H](O)CC[C@@H](O)C[C@@H](O)CC(=O)O[C@H]1C)C[C@H](O)[C@H]2C(=O)O [Amphotericin B, reference compound]",Selectivity index (SI),[2],20.6
same,IC50,[2],1.2 ± 0.1 µM
same,IC50,[1],23.8 ± 2.3 µM
Cc1ccc(/C=C2\Oc3ccccc3C2=O)cc1 [Compound 4b],IC50,[1],8.5 ± 0.8 µM
COc1ccccc1/C=C1\Oc2ccccc2C1=O [Compound 4d],IC50,[1],17.5 ± 3.1 µM
"COc1cc(OC)c2c(c1)O/C(=C\c1ccccc1)C2=O [Compound 4l, 4,6-Dimethoxyaurone]",IC50,[2],2.1 ± 0.9 µM
same,Selectivity index (SI),[2]; [3],26.9
same,IC50,[1],57.5 ± 3.4 µM
same,melting point,,139 to 142 °C
COc1ccc(/C=C2\Oc3cc(OC)cc(OC)c3C2=O)cc1 [Compound 4h],IC50,[1],19.6 ± 2.5 µM
COc1cccc(/C=C2\Oc3ccccc3C2=O)c1 [Compound 4e],IC50,[2],4.7 ± 0.5 µM
same,Selectivity index (SI),[2]; [3],11.5
same,IC50,[1],54.2 ± 7.3 µM
same,"toxicity to mammalian (THP1) cells, in words",[1],did not show significant toxicity
"COc1cc(OC)c2c(c1)O/C(=C\c1ccccc1OC)C2=O [Compound 4i, 2′,4,6-trimethoxyaurone]",IC50,[2],1.3 ± 0.1 µM
same,Selectivity index (SI),[2]; [3],57.5
same,IC50,[1],75.4 ± 4.7 µM
O=C1/C(=C/c2ccc(Cl)cc2)Oc2ccccc21 [Compound 4c],IC50,[1],14.5 ± 2.1 µM
COc1ccc(/C=C2\Oc3ccccc3C2=O)cc1OC [Compound 4f],IC50,[1],20.5 ± 1.2 µM
"COc1cc(OC)c2c(c1)O/C(=C\c1ccccc1Cl)C2=O [Compound 4k, 4,6-Dimethoxy-2′-chloro-aurone]",IC50,[2],12.2 ± 1.4 µM
same,Selectivity index (SI),[2]; [3],>8.2
same,IC50,[1],> 100 µM
same,"toxicity to mammalian (THP1) cells, in words",[1],not toxic to mammalian cells
same,melting point,,191 to 193 °C
"COc1cc(OC)c2c(c1)O/C(=C\c1ccccc1C)C2=O [Compound 4j, 4,6-Dimethoxy-2′-methylaurone]",IC50,[2],1.6 ± 0.2 µM
same,Selectivity index (SI),[2]; [3],43.4
same,IC50,[1],68.1 ± 2.1 µM
same,melting point,,180 to 183 °C
